How the values were obtained:
[1] = test system: patients with R/R AML and a susceptible IDH1 mutation; conditions: cited from earlier work
primary human AML cells = assay: Treatment of primary human AML cells; assay type: cell-based
CYP2C9 = assay: Mechanistic static DDI risk assessment with in vitro data: CYP2C9 induction; assay type: in vitro ADME; conditions: at the recommended dosage
[2] = Clinical drug-drug interaction with rifampin or itraconazole; assay type: in vivo
[3] = in vivo
CYP3A4 = assay: Mechanistic static DDI risk assessment with in vitro data: CYP3A4 induction; assay type: in vitro ADME; conditions: at the recommended dosage
[4] = Food effect study in healthy subjects; assay type: in vivo, human; conditions: single 150 mg dose
CYP2C8 = assay: Mechanistic static DDI risk assessment with in vitro data: CYP2C8 induction; assay type: in vitro ADME; conditions: at the recommended dosage
patients with R/R AML [5] = conditions: in vivo
[6] = test system: cell lines expressing mutated IDH1 proteins (R132H, R132L, R132S, R132G, and R132C); assay: 2-HG production in cell lines expressing mutated IDH1 proteins; assay type: cell-based; conditions: read-out: IC50 for suppression of 2-HG production
[7] = test system: 2-HG plasma concentrations; assay: PK/PD analysis of 2-HG plasma concentrations in patients with AML; assay type: in vivo, human; conditions: 150 mg BID, by the end of the first cycle; %CV 122%
[8] = test system: adult patients with R/R AML harboring an IDH1 R132 mutation; assay: Study 2102-HEM-101 pivotal cohort: efficacy; assay type: in vivo, human
patients with R/R AML [9] = assay: Study 2102-HEM-101 pivotal cohort: safety
wild type IDH1 = wild type IDH1 (Homo sapiens, UniProt O75874); assay: Nonclinical pharmacology: inhibition of wild type IDH1; assay type: biochemical
Chain of wild type IDH1 (O75874 whole entry): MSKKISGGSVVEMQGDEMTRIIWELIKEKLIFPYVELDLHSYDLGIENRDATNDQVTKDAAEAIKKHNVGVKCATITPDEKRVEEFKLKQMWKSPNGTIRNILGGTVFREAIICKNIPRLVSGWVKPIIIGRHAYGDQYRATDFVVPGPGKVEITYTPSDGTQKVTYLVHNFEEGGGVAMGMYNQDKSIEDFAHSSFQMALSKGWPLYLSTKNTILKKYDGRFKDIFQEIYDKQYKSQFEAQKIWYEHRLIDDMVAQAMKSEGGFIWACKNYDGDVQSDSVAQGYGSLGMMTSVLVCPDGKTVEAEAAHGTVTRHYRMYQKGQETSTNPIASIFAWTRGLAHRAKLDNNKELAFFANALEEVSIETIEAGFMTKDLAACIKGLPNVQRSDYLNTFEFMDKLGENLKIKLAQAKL

pregnant rats = assay: Embryo-fetal development study in rats; assay type: in vivo
mutated IDH1 = assay: Nonclinical pharmacology: inhibition of mutated IDH1; assay type: biochemical
[10] = Clinical pharmacokinetics after oral administration; assay type: in vivo, human
OATP1B1 = assay: Mechanistic static DDI risk assessment with in vitro data: OATP1B1 inhibition; assay type: in vitro ADME; conditions: at the recommended dosage
pregnant rabbits = assay: Embryo-fetal development study in rabbits; assay type: in vivo
cynomolgus monkeys = conditions: cynomolgus monkey, in vivo
mutated IDH2 proteins = assay: Nonclinical pharmacology: inhibition of mutated IDH2; assay type: biochemical
CYP2B6 = assay: Mechanistic static DDI risk assessment with in vitro data: CYP2B6 induction; assay type: in vitro ADME; conditions: at the recommended dosage
CYP1A2 = assay: Mechanistic static DDI risk assessment with in vitro data: CYP1A2 induction; assay type: in vitro ADME; conditions: at the recommended dosage
rats [11] = conditions: rat, in vivo
CYP2C19 = assay: Hepatocyte induction study: CYP2C19; assay type: in vitro ADME
[12] = QTc interval assessment in patients; assay type: in vivo, human; conditions: elevated exposures under fed condition
cytochrome P450 (CYP)3A4 = cytochrome P450 (CYP)3A4 (Homo sapiens, UniProt P08684); assay: Metabolism by cytochrome P450 enzymes; assay type: in vitro ADME; conditions: minor contributions from CYP2C8, CYP2C9, CYP1A2, CYP2C19
Chain of cytochrome P450 (CYP)3A4 (P08684 whole entry): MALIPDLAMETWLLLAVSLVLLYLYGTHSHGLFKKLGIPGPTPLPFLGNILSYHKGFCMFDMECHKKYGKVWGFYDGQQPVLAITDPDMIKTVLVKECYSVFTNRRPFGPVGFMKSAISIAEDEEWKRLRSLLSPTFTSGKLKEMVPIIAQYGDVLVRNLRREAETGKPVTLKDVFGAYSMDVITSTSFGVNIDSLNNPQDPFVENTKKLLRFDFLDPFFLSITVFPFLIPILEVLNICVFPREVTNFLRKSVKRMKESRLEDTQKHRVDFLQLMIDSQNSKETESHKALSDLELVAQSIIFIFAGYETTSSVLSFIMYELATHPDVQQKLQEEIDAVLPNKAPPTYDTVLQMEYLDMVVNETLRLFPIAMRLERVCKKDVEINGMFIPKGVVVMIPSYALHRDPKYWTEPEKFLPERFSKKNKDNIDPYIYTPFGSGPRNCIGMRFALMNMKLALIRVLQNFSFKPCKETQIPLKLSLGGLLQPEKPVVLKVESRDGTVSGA

[13] = test system: adult patients with R/R AML or myelodysplastic syndrome (MDS) harboring an IDH1 R132 mutation; assay: Study 2102-HEM-101 dose escalation/expansion portion
rats [14] = assay type: in vivo; conditions: after 48 hours of exposure to UV light
[15] = concomitant multiple doses of rifampin, a strong CYP3A inducer

N#Cc1ccnc(N2C(=O)CC[C@H]2C(=O)N(c2cncc(F)c2)[C@H](C(=O)NC2CC(F)(F)C2)c2ccccc2Cl)c1 [Ivosidenib, ivosidenib]
CR + CRh rate ([1]; R/R AML with susceptible IDH1 mutation): 33%
differentiation syndrome, all grades [1]: 19%
differentiation syndrome, grade 3 or higher [1]: 13%
median duration of response [1]: 8.2 months
rate of conversion of TD to TI [1]: 37%
rate of ALT elevation ([1]; patients with R/R AML): 15%
rate of AST elevation ([1]; patients with R/R AML): 27%
rate of all grade QTc prolongation ([1]; patients with R/R AML): 26%

C[C@H](Nc1ccc(C#N)n(C)c1=O)c1cc2cc(Cl)ccc2[nH]c1=O [Olutasidenib, olutasidenib]
2-HG production (primary human AML cells): suppressed 2-HG production
cell differentiation (primary human AML cells): induced granulocytic/monocytic cell differentiation
cell proliferation (primary human AML cells): increased cell proliferation
CYP2C9 induction potential (CYP2C9): may induce
differences in PK with itraconazole ([2]; concomitant multiple doses of itraconazole, a strong CYP3A and P-gp inhibitor): No clinically significant differences
decrease of AUC with rifampin [2, 15]: 80%
decrease of Cmax with rifampin [2, 15]: 43%
tissue distribution [3]: binding of olutasidenib to melanin-containing tissues
CYP3A4 induction potential (CYP3A4): may induce
mean increase of AUCinf with a high-fat meal ([4]; CV% 18.3%): 83%
mean increase of Cmax with a high-fat meal ([4]; CV% 20.6%): 191%
CYP2C8 induction potential (CYP2C8): may induce
Abdominal Pain, Any Grade (patients with R/R AML [5]; human): 28 (18)
Abdominal Pain, Grade ≥3 (patients with R/R AML [5]; human): 1 (1)
Arthralgia, Any Grade (patients with R/R AML [5]; human): 43 (28)
Arthralgia, Grade ≥3 (patients with R/R AML [5]; human): 4 (3)
Constipation, Any Grade (patients with R/R AML [5]; human): 39 (26)
Constipation, Grade ≥3 (patients with R/R AML [5]; human): 0
Cough, Any Grade (patients with R/R AML [5]; human): 26 (17)
Cough, Grade ≥3 (patients with R/R AML [5]; human): 1 (1)
Diarrhea, Any Grade (patients with R/R AML [5]; human): 31 (20)
Diarrhea, Grade ≥3 (patients with R/R AML [5]; human): 2 (1)
Differentiation Syndrome, Any Grade (patients with R/R AML [5]; human): 25 (16)
Differentiation Syndrome, Grade ≥3 (patients with R/R AML [5]; human): 13 (8)
Dyspnea, Any Grade (patients with R/R AML [5]; human): 37 (24)
Dyspnea, Grade ≥3 (patients with R/R AML [5]; human): 4 (3)
Edema, Any Grade (patients with R/R AML [5]; human): 27 (18)
Edema, Grade ≥3 (patients with R/R AML [5]; human): 4 (3)
Fatigue/Malaise, Any Grade (patients with R/R AML [5]; human): 55 (36)
Fatigue/Malaise, Grade ≥3 (patients with R/R AML [5]; human): 2 (1)
Grade 3 or higher adverse reaction: dyspnea (patients with R/R AML [5]; human): 5%
Grade 3 or higher adverse reaction: hypertension (patients with R/R AML [5]; human): 5%
Grade 3 or higher adverse reaction: leukocytosis (patients with R/R AML [5]; human): 9%
Grade 3 or higher adverse reaction: transaminitis (patients with R/R AML [5]; human): 12%
Grade 3 or higher differentiation syndrome (patients with R/R AML [5]; human): 8%
Headache, Any Grade (patients with R/R AML [5]; human): 19 (13)
Headache, Grade ≥3 (patients with R/R AML [5]; human): 0
Hypertension, Any Grade (patients with R/R AML [5]; human): 16 (10)
Hypertension, Grade ≥3 (patients with R/R AML [5]; human): 7 (5)
Leukocytosis, Any Grade (patients with R/R AML [5]; human): 38 (25)
Leukocytosis, Grade ≥3 (patients with R/R AML [5]; human): 14 (9)
Mucositis, Any Grade (patients with R/R AML [5]; human): 35 (23)
Mucositis, Grade ≥3 (patients with R/R AML [5]; human): 5 (3)
Nausea, Any Grade (patients with R/R AML [5]; human): 57 (38)
Nausea, Grade ≥3 (patients with R/R AML [5]; human): 0
Pyrexia, Any Grade (patients with R/R AML [5]; human): 36 (24)
Pyrexia, Grade ≥3 (patients with R/R AML [5]; human): 1 (1)
QTc prolongation TEAE, Grade 3 or higher (patients with R/R AML [5]; human): 1%
QTc prolongation TEAE, any grade (patients with R/R AML [5]; human): 8%
Rash, Any Grade (patients with R/R AML [5]; human): 36 (24)
Rash, Grade ≥3 (patients with R/R AML [5]; human): 2 (1)
Transaminitis, Any Grade (patients with R/R AML [5]; human): 31 (20)
Transaminitis, Grade ≥3 (patients with R/R AML [5]; human): 18 (12)
Vomiting, Any Grade (patients with R/R AML [5]; human): 25 (16)
Vomiting, Grade ≥3 (patients with R/R AML [5]; human): 1 (1)
differentiation syndrome (DS), all grades (patients with R/R AML [5]; human): 16%
dose reductions due to adverse reactions (patients with R/R AML [5]; human): 11%
median time to onset of DS (patients with R/R AML [5]; human): 14 days
median time to onset of transaminitis (patients with R/R AML [5]; human): 1.2 months
median time to resolution of transaminitis (patients with R/R AML [5]; human): 12 days
patients who discontinued therapy due to an AR (patients with R/R AML [5]; human): 8%
patients with DS who had olutasidenib held (patients with R/R AML [5]; human): 44%
patients with DS who recovered after treatment or dosage interruption (patients with R/R AML [5]; human): 76%
patients with a Grade 3 or 4 TEAE (patients with R/R AML [5]; human): 84%
patients with a Grade 3 or 4 hepatotoxicity TEAE (patients with R/R AML [5]; human): 13%
patients with dose held due to QTc prolongation (patients with R/R AML [5]; human): 1%
patients with therapy discontinued due to a hepatobiliary AR (patients with R/R AML [5]; human): 5%
patients with therapy reduced due to a hepatobiliary AR (patients with R/R AML [5]; human): 6%
patients with treatment interrupted due to an AR (patients with R/R AML [5]; human): 32%
rate of ALT elevation (patients with R/R AML [5]; human): 46%
rate of AST elevation (patients with R/R AML [5]; human): 47%
treatment discontinuation due to DS (patients with R/R AML [5]; human): 3%
treatment discontinuation due to gallbladder disorders (patients with R/R AML [5]; human): 1%
treatment discontinuation due to transaminitis (patients with R/R AML [5]; human): 3%
treatment interruption due to DS (patients with R/R AML [5]; human): 7%
treatment interruption due to transaminitis (patients with R/R AML [5]; human): 10%
Hy's Law cases (patients with R/R AML [5]): no confirmed Hy’s Law cases
patients with dose reduced or discontinued due to QTc prolongation (patients with R/R AML [5]): no patients
IC50 [6]: 8 to 116 nM
mean reduction of 2-HG plasma concentration [7]: 59.1%
CR + CRh rate ([8]; 150 mg BID, 147 efficacy-evaluable patients, 95% CI 27-43%): 35%
CR + CRh, n (%) ([8]; 150mg BID, N=147): 51 (35) n (%)
CR, n (%) ([8]; 150mg BID, N=147): 47 (32) n (%)
Median DOCR ([8]; 150mg BID, N=147): 28.1 months
Median DOCRh ([8]; 150mg BID, N=147): 3.6 months
median duration of CR + CRh (DOCR + CRh, duration of response) ([8]; 150 mg BID, N=147, 95% CI 13.5, NR): 25.9 months
conversion from transfusion dependence (TD) to transfusion independence (TI) ([8]; 29 of 86 patients TD at baseline): 34%
maintenance of TI in patients TI at baseline ([8]; 39/61 patients): 64%
CR + CRh rate at interim analysis for efficacy ([8]; 41 out of 123 efficacy evaluable subjects, 95% CI 25.1%-42.4%): 33%
patients able to proceed to allogeneic stem cell transplantation after treatment ([8]; sixteen of 147 patients): 11%
deaths due to complications from DS (patients with R/R AML [9]; 2 deaths, of on treatment deaths): 4%
30-day mortality (patients with R/R AML [9]; 13 patients): 8%
deaths on treatment (on or within 28 days of the last dose) (patients with R/R AML [9]; 45 deaths): 29%
total deaths (patients with R/R AML [9]; 101 of 153 patients): 66%
on treatment deaths due to underlying AML or complications from AML (patients with R/R AML [9]; thirty-seven of 45 on treatment deaths): 82%
inhibitory activity against wild type IDH1 (wild type IDH1): little or no inhibitory activity
embryo-fetal development findings (pregnant rats): embryo-fetal death and altered fetal growth
inhibitory activity against mutated IDH1 (mutated IDH1): inhibited
dose proportionality of Cmax and AUC ([10]; dose range of 100 to 300 mg): increased less than proportionally
time to steady-state plasma levels ([10]; human, in vivo): ≤ 14 days
half-life ([10]; human, plasma, po): ~67 h
time to maximum plasma concentration (Cmax) ([10]; oral administration): approximately 4 hours
OATP1B1 inhibition potential (OATP1B1): inhibit
embryo-fetal development findings (pregnant rabbits): embryo-fetal death and altered fetal growth
general toxicology findings (cynomolgus monkeys): altered glucose and lipid metabolism, inflammation, and the GI tract, liver, kidney, and cardiovascular system as the main organs of toxicity
inhibitory activity against mutated IDH2 proteins (mutated IDH2 proteins): little or no inhibitory activity
CYP2B6 induction potential (CYP2B6): may induce
CYP1A2 induction potential (CYP1A2): may induce
general toxicology findings (rats [11]): altered glucose and lipid metabolism, inflammation, and the GI tract, liver, kidney, and cardiovascular system as the main organs of toxicity
potential to induce CYP2C19 (CYP2C19): cannot be ruled out
QT prolongation expected under a fed condition [12]: ≤ 30 ms
share of metabolism by CYP3A4 (cytochrome P450 (CYP)3A4): 90%
patients with CR, CRh or CRi (preliminary efficacy) ([13]; 150mg BID, dose escalation/expansion portion, 5/13 patients): 38%
dose-limiting toxicities ([13]; dose escalation): no dose-limiting toxicities observed
phototoxicity finding (rats [14]): erythema in the skin

Reference: publication PMC11703669 (Clinical cancer research : an official journal of the …, 2025)
